Laboratory results as given in US9617247B1, “Form of halosulfuron-methyl, a process for its preparation and use of the same” (priority 2015, dated 2017).

Tests used:
Type in all cases: physicochemical
[1] = Determining water solubility (pH 7 buffer, HPLC of supernatant); conditions: for Concentration measured by HPLC after treatment: pH 7 buffer
Description: A stock pH 7 buffer solution was prepared by adding aqueous sodium hydroxide solution (0.1 M, 145 mL) to aqueous potassium dihydrogen phosphate solution (0.1 M, 250 mL), and then adding sufficient distilled water to adjust the final volume to 500 mL. At least 1 time and up to about 5 times the amount of halosulfuron-methyl needed for saturation was added to a mixing vessel containing stock buffer solution at the test temperature (e.g., 20° C.). The mixture was magnetically stirred in the dark while being maintained at the test temperature. Samples were periodically removed for analysis. The samples were centrifuged using a high speed, temperature-controlled centrifuge at the test temperature for about 20 minutes at ≧12000 G to remove suspended particles. An aliquot of each supernatant was taken for analysis.
The concentration of halosulfuron-methyl in the supernatant was determined by a high pressure liquid chromatography (HPLC) with a reversed phase chromatography column and UV detection. […] Samples were successively withdrawn from the mixing vessel and analyzed until three successive samples show little or no variation in concentration. The test is preferably replicated to ensure accuracy.

[2] = Cleanout test (residual halosulfuron-methyl extracted from bottle with acetonitrile); conditions: lower rating = more effective cleanout
Description: The test was conducted by dispersing in water a sample to produce a concentration that is normally used when applying the herbicide: 25% halosulfuron-methyl. The sample was added to tap water (300 mL) in a 400 mL beaker and magnetically stirred for 2 minutes. The mixture was then stirred for 2 minutes, whereupon the resulting dispersion was dispensed in three 100 mL aliquots to 4-oz (118 mL) polyethylene bottles. The bottles were capped, inverted twice and allowed to stand overnight.
After standing overnight, each individual bottle was inverted twice and the liquid contents were then poured out. Tap water (10 mL) was added and the bottle was inverted until all sediment was re-suspended, whereupon the contents were poured out. Tap water (100 mL) was added and the bottle was inverted twice and then allowed to stand undisturbed for 10 minutes. The bottle was inverted twice more and the contents were poured out. Acetonitrile (10 mL) was added to the bottle to extract any remaining material. The acetonitrile solution was analyzed by reversed-phase liquid chromatography with UV detection. The cleanout rating (the concentration of halosulfuron-methyl herbicide in the acetonitrile solution) is reported in % in Table 6 below.

[3] = Viscosity (stated finding, no method given)
[4] = OD formulation, measured vs original concentration 40%
[5] = OD formulation, original concentration 40%
[6] = SG formulation, measured vs original concentration 25%
[7] = SG formulation, original concentration 25%
[8] = WG formulation, measured vs original concentration 25%
[9] = WG formulation, original concentration 25%

| Compound | Solubility [1, 4] | Concentration measured by HPLC after treatment [1, 5] | Solubility [1, 6] | Concentration measured by HPLC after treatment [1, 7] | Solubility [1, 8] | Concentration measured by HPLC after treatment [1, 9] | Cleanout rating (concentration of halosulfuron-methyl in the acetonitrile solution) ([2]; OD formulation) | Cleanout rating (concentration of halosulfuron-methyl in the acetonitrile solution) ([2]; SG formulation) | Cleanout rating (concentration of halosulfuron-methyl in the acetonitrile solution) ([2]; WG formulation) | viscosity (in words) ([3]; listed as halosulfuron-methyl in amorphous state) | solubility (in words) ([1]; compared with amorphous halosulfuron-methyl) | viscosity (in words) ([3]; listed as crystalline modification I of halosulfuron-methyl) |
| --- | --- | --- | --- | --- | --- | --- | --- | --- | --- | --- | --- | --- |
| COC(=O)c1c(Cl)nn(C)c1S(=O)(=O)NC(=O)Nc1nc(OC)cc(OC)n1 [Amorphous halosulfuron-methyl, methyl 3-chloro-5-(4,6-dimethoxypyrimidin-2-ylcarbamoylsulfamoyl)-1-methylpyrazole-4-carboxylate, reference compound] | 35% | 14% | 60% | 15% | 48% | 12% | 26% | 10% | 13% | highly viscous |  |  |
| COC(=O)c1c(Cl)nn(C)c1S(=O)(=O)NC(=O)Nc1nc(OC)cc(OC)n1 [Halosulfuron-methyl, crystalline modification I] [methyl 3-chloro-5-(4,6-dimethoxypyrimidin-2-ylcarbamoylsulfamoyl)-1-methylpyrazole-4-carboxylate] | 88% | 35% | 99.6% | 24.9% | 92% | 23% | 5% | 0.1% | 2% |  | significant increase | decrease |
